Reference: patent US20260355330A1, “CELL PENETRATING PEPTIDES AND USES THEREOF” (VECTIOPEP OÜ, priority 2022, published 2026)

What was measured:
[1] = tested on: CHO-K1 cells; assay: Delivery of reporter mRNA with CPPs in cell culture (luciferase luminescence 24 h post-transfection); assay type: cell-based
Method in brief: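 CHO-K1 cells (10,000/well) transfected in 10% FBS DMEM with 0.1 μg firefly luciferase mRNA complexed with CPP at 3:1 charge ratio (peptide excess). Luminescence read in lysates 24 h later, normalised to BCA total protein (RLU/mg).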

[2] = in words; previously reported; cited from earlier work
[3] = tested on: CHO-K1 cells; assay: Comparison of reporter levels in cells post-transfection of pDNA or mRNA delivered by CPPs; assay type: cell-based; conditions: in words; mRNA cargo; FIG. 2
Experimental: FIG. 2: Comparison of reporter levels in cells post-transfection of pDNA or mRNA delivered by CPPs (P14, NF55 and NF71; relative light units normalised to total protein in the cell lysate (RLU/mg)). Naked mRNA and untreated cells (UT) were used as controls.
Adherent CHO-K1 cells were grown in Dulbecco's Modified Eagle's Medium (DMEM), which were supplemented with 0.1 mM non-essential amino acids, 1.0 mM sodium pyruvate, 100 U/ml penicillin, and […]. For complete media, 10% (final) fetal bovine serum (FBS) was added. Cells were maintained in a humidified incubator at 37 °C, 5% CO2. Cell viability and confluence was assessed daily and the cell density was reduced regularly. For cell counting, we used the CytoSMART cell counter accompanied by 0.4% trypan blue staining prior measurement. The multi-well plates with cell cultures used for experiments were incubated in a humidified incubator at 37 °C, 5% CO2.
For in vitro experiments 0.1 μg of nucleic acid (plasmid DNA (pDNA) or mRNA) was used per 96-well plate well. For CPP/NA complex formation, the diluted NA was mixed with CPP in water. Complexes were formed based on the theoretical charge ratio (CR) of positive charges from the peptide in excess to the negative charges from nucleic acid backbone, at charge ratio 3:1 with peptide in excess. […]
For reporter luminescence (expressed from firefly luciferase encoding mRNA or plasmid pDNA) assessment in adherent cell culture, 10,000 cells per 96-well plate well were seeded in 100 μl of media one day prior to transfection. […]
24 hours post-transfection, the media was aspirated, cells were washed with 1×PBS, and 30 μl of lysis buffer (0.1% Triton X100 in 1×PBS) was added. […] From the lysate, 20 μl was transferred to a black frame white well 96-well plate for luminescence measurement after addition of substrate luciferin (PerkinElmer) in buffer. The luminescence signal was detected with GloMax® 96 microplate luminometer equipped with GloMax® 1.9.2 software (Promega). […]

[4] = tested on: liver, spleen, lung, kidney, heart and thymus of Balb/c mice; assay: Biodistribution of reporter levels post-transfection of mRNA or pDNA with CPPs in vivo (tissue homogenate)
Experimental: FIG. 3: Biodistribution of reporter levels post-transfection of mRNA or pDNA with NFs or PFs CPPs in vivo. Reporter gene product levels were evaluated from the whole tissue homogenates collected post mortem. Results are shown as the fold change to mRNA or pDNA treated mice.
The transfection complexes (CPP/mRNA) were formed using 10 μg of mRNA mixed with each peptide at indicated charge ratios (CRs) in MQ water in a final volume of 100 μl. CRs were calculated theoretically and account for both the positive charges of the peptide and negative charges of the nucleic acid. The transfection complexes (CPP/mRNA and CPP/pDNA) were formed using 50 μg of mRNA mixed with each peptide at indicated charge ratios (CRs) in MQ water in a final volume of 168 μl. The complexes were incubated for 30 minutes at room temperature and then mixed with equal volume of 10% glucose (resulting in a final solution of 5% glucose in a total volume of 200 μl for 10 μg dose groups and 336 μl for 50 μg dose groups) and immediately injected intravenously via the tail vein.
The reporter gene (luciferase) expression levels were evaluated from the tissue homogenate post mortem 16-24 h after single injection.
In order to determine to which organs in vivo mRNAs may be delivered to with NickFect or PepFect CPPs, mRNA complexes with NF55, NF71 and PF14 were formed and injected through the tail vein of Balb/c mice (FIG. 3A). The organs were harvested 24 hours after the single injection and reporter signal was measured from whole tissue homogenates. The biodistribution of reporter levels was measured in liver, spleen, lung, kidney, heart and thymus.
In order to compare the biodistribution profiles between harvested organs when using either mRNA or pDNA as cargo, NF424 was used to transfect these 2 types of nucleic acids in vivo (FIG. 3B and Table 4).

[5] = tested on: spleen of BALB/c mice; assay: In vivo delivery of mRNA with CPPs - reporter levels in the spleen
Method in brief: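 CPP/mRNA complexes were formed at the indicated charge ratios in water for 30 min at room temperature, using 10 or 50 μg mRNA, then brought to 5% glucose. Complexes were injected intravenously via the tail vein into BALB/c mice. Spleens were harvested 16 h after the single injection, and luciferase (RLU) was measured in whole-tissue homogenate.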

[6] = mRNA delivery, i.v. tail vein, 24 h after single injection, FIG. 3: fold change to mRNA or pDNA treated mice

## CCCCCCCCCCCCCCCCCC(=O)N[C@@H](C)C(=O)NCC(=O)N[C@@H](Cc1ccc(O)cc1)C(=O)N[C@@H](CC(C)C)C(=O)N[C@@H](CC(C)C)C(=O)NCC(=O)NCCC[C@H](N)C(=O)N[C@H](C(=O)N[C@@H](CC(N)=O)C(=O)N[C@@H](CC(C)C)C(=O)N[C@@H](CCCCN)C(=O)N[C@@H](C)C(=O)N[C@@H](CC(C)C)C(=O)N[C@@H](C)C(=O)N[C@@H](C)C(=O)N[C@@H](CC(C)C)C(=O)N[C@@H](C)C(=O)N[C@@H](CCCCN)C(=O)N[C@@H](C)C(=O)N[C@H](C(=O)N[C@@H](CC(C)C)C(N)=O)[C@@H](C)CC)[C@@H](C)CC [NF55]
[1]; firefly luciferase mRNA, 0.1 μg per well, charge ratio 3:1, serum containing media, 24 h, RLU normalised to total protein in lysate
  Average RLU/mg (reporter levels post-transfection of mRNA): 1 270 000 000 RLU/mg
[1]; in words, FIG. 1 / Table 2, cell culture
  Efficiency of mRNA transfection/delivery: the most efficient
[2]
  pDNA delivery efficiency: excellent vector for the delivery of DNA in vivo
[3]
  Efficiency of mRNA transfection (parallel pDNA/mRNA comparison): very efficient for mRNA transfection
[4]; in words, mRNA cargo
  Organ distribution of mRNA delivery: much higher than in any other organ
[4]; [6]
  Reporter level, Liver: 284
  Reporter level, Lung: 23 465
  Reporter level, Spleen: 79 879
[4]; mRNA, 24 h after single i.v. injection
  Delivery of mRNA to the spleen relative to delivery to the lungs: 3.5 times
[5]; in words, FIG. 5 / Table 5
  Efficacy of mRNA delivery into the spleen in vivo: delivered mRNA into the spleen in vivo with high efficacy
[5]; mRNA, tail vein injection, spleens harvested 16 hours after single injection, whole tissue homogenate
  Reporter levels in the spleen (RLU): 124 363 RLU
